The source of these data is US11564928B1, “Cannabinoid receptor type 2 (CB2) modulators and uses thereof” (Teon Therapeutics, Inc., priority 2020, dated 2023).

Like-named read-outs stand apart in the source and are kept apart here. Some results are limits rather than exact numbers.

In assay [1] the target is T1, human CB2 receptor (Homo sapiens (Human), UniProt P34972). As to the kind of experiment: CB2 receptor cAMP assay (DiscoverX HitHunter cAMP XS+). Type of assay: cell-based. The note with it: for Emax: CHO-K1, read-out: Max Stimulation %. In a few lines:
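CHO-K1 cells expressing human CB2, HitHunter cAMP XS+ chemiluminescence. Agonist mode with EC80 forskolin, inverse agonist with EC20 forskolin, antagonist mode by compound preincubation 30 min then EC80 agonist plus EC80 forskolin; 30 or 60 min at 37 °C or RT, 1% vehicle. IC50 from variable-slope fit.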

In assay [2] the target is T1, human CB2 receptor. Nature of the assay: CB2 receptor binding assay ([3H]CP-55,940 displacement, HEK-293 membranes). The note with it: membranes of HEK-293 cells with human recombinant CB2R, [3H]CP-55,940, read-out: CB2 IC50.
A further assay addresses human recombinant CB1R (Homo sapiens (Human), UniProt P21554). As to the kind of experiment: CB1 receptor binding assay ([3H]CP-55,940 displacement, HEK-293 membranes). The note with it: membranes of HEK-293 cells with human recombinant CB1R, [3H]CP-55,940, read-out: CB1 IC50. In a few lines:
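Membranes from HEK-293 cells expressing human recombinant CB1R or CB2R were incubated with [3H]CP-55,940 and compound for 120 min at 37 °C in duplicate. The CB2R incubation buffer was 50 mM Tris-HCl, 5 mM MgCl2, 1 mM CaCl2, 0.2% BSA, pH 7.4. Bound radioactivity was filtered and counted, and IC50 was converted to Ki by Cheng–Prusoff.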

Setting [3] is: cAMP Hunter CHO-K-1 cells expressing human CB2 receptor, read-out: cAMP IC50.

human recombinant CB1R, sequence (P21554 whole entry): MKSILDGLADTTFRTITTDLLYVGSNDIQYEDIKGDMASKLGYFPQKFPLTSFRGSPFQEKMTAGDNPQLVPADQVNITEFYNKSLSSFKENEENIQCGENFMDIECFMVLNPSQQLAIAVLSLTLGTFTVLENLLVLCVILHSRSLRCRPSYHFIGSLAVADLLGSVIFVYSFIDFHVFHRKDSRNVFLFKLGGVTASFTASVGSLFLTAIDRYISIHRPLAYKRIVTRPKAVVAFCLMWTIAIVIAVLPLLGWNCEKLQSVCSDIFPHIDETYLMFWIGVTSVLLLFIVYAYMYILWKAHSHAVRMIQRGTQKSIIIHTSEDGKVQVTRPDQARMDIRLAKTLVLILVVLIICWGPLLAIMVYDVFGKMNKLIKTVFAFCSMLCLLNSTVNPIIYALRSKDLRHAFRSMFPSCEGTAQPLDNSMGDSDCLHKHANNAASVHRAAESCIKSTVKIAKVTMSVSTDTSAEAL
T1 sequence (P34972 whole entry): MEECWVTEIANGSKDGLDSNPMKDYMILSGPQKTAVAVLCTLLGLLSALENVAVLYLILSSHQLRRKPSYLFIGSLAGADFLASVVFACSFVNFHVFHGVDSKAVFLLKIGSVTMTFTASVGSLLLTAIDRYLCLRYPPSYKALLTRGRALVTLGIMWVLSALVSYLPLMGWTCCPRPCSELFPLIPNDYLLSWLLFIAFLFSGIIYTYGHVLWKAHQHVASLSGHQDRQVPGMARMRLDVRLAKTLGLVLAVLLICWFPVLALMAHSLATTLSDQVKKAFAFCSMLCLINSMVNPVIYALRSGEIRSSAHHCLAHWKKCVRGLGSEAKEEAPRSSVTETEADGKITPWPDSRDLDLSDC

Turning to `N#Cc1ccc(-c2cnc3c(c2)cc(C(=O)NC24CC(C2)C4)c(=O)n3CCN2CCOCC2)nc1` [Compound 59, N-(bicyclo[1.1.1]pentan-1-yl)-6-(5-cyanopyridin-2-yl)-1-(2-morpholinoethyl)-2-oxo-1,2-dihydro-1,8-naphthyridine-3-carboxamide], the Emax on human CB2 receptor [1] turned out to be 75%. For the same molecule, the IC50 at human CB2 receptor [1] (setting [3]) is 119 nM; at human CB2 receptor [2], 130 nM; at human recombinant CB1R, greater than 10000 nM.
Consider `CC1CCC(NC(=O)c2cc3cc(Br)cnc3n(CCN3CCOCC3)c2=O)CC1` (stereo not shown) [Compound 61, 6-bromo-N-(4-methylcyclohexyl)-1-(2-morpholinoethyl)-2-oxo-1,2-dihydro-1,8-naphthyridine-3-carboxamide], for which the IC50 at human CB2 receptor [1] is 13 nM; at human CB2 receptor [2] (class symbols) it was less than 100 nM; on human recombinant CB1R (class symbols), greater than 1000 nM. For the same molecule, the Emax on human CB2 receptor [1] turned out to be 83%.
With `CC1CCC(NC(=O)c2cc3cc(-c4ccccn4)cnc3n(CCN3CCOCC3)c2=O)CC1` (stereo not shown) [Compound 62, N-(4-methylcyclohexyl)-1-(2-morpholinoethyl)-2-oxo-6-(pyridin-2-yl)-1,2-dihydro-1,8-naphthyridine-3-carboxamide], the half-inhibitory concentration (IC50) was 13 nM at human CB2 receptor [1], less than 100 nM at human CB2 receptor [2] (class symbols) and greater than 1000 nM on human recombinant CB1R (class symbols). Besides, on human CB2 receptor [1], the Emax stood at 33%.
On to `CC1CCC(NC(=O)c2cc3cc(-c4ncccn4)cnc3n(CCN3CCOCC3)c2=O)CC1` (stereo not shown) [Compound 63, N-(4-methylcyclohexyl)-1-(2-morpholinoethyl)-2-oxo-6-(pyrimidin-2-yl)-1,2-dihydro-1,8-naphthyridine-3-carboxamide], for which the IC50 at human CB2 receptor [1] (setting [3]) was greater than 1000 nM; at human CB2 receptor [2] (class symbols) it was less than 100 nM; at human recombinant CB1R (class symbols), greater than 1000 nM.
For `N#Cc1ccc(-c2cnc3c(c2)cc(C(=O)NC2CC4(CCC4)C2)c(=O)n3Cc2ccc(F)cc2)nc1` [Compound 69, 6-(5-cyanopyridin-2-yl)-1-(4-fluorobenzyl)-2-oxo-N-(spiro[3.3]heptan-2-yl)-1,2-dihydro-1,8-naphthyridine-3-carboxamide], the IC50 on human CB2 receptor [1] is 21 nM; on human CB2 receptor [2] (class symbols), less than 100 nM; on human recombinant CB1R (class symbols) it was greater than 1000 nM. Also, the Emax at human CB2 receptor [1] was 79%.
For `O=C(NC12CC(C1)C2)c1cc2cc(Br)cnc2n(Cc2ccc(F)cc2)c1=O` [Compound 82, N-(bicyclo[1.1.1]pentan-1-yl)-6-bromo-1-(4-fluorobenzyl)-2-oxo-1,2-dihydro-1,8-naphthyridine-3-carboxamide], in that order: 1 nM, less than 100 nM, greater than 1000 nM and 86%.
`O=C(NC12CC(C1)C2)c1cc2cc(C3CC3)cnc2n(Cc2ccc(F)cc2)c1=O` [Compound 83, N-(bicyclo[1.1.1]pentan-1-yl)-6-cyclopropyl-1-(4-fluorobenzyl)-2-oxo-1,2-dihydro-1,8-naphthyridine-3-carboxamide]: the half-maximal inhibitory concentration (IC50) is 5 nM against human CB2 receptor [1], less than 100 nM on human CB2 receptor [2] (class symbols) and greater than 1000 nM on human recombinant CB1R (class symbols). Besides, the Emax on human CB2 receptor [1] is 93%.
Turning to `CC(C)c1cnc2c(c1)cc(C(=O)N[C@H](C)c1ccc(C#N)cc1)c(=O)n2Cc1ccc(F)cc1` [Compound 85, (R)—N-(1-(4-cyanophenyl)ethyl)-1-(4-fluorobenzyl)-6-isopropyl-2-oxo-1,2-dihydro-1,8-naphthyridine-3-carboxamide], the IC50 at human CB2 receptor [1] was determined as 0.5 nM; at human CB2 receptor [2], 7.9 nM; on human recombinant CB1R, 605 nM. The Emax on human CB2 receptor [1] is 93%.
As to `CC(C)c1cnc2c(c1)cc(C(=O)N[C@H](C)c1ccc(F)cc1)c(=O)n2Cc1ccc(F)cc1` [Compound 89, (R)-1-(4-fluorobenzyl)-N-(1-(4-fluorophenyl)ethyl)-6-isopropyl-2-oxo-1,2-dihydro-1,8-naphthyridine-3-carboxamide], the values for the half-maximal inhibitory concentration (IC50) against human CB2 receptor [1], on human CB2 receptor [2] (class symbols) and at human recombinant CB1R (class symbols) were 7 nM, less than 100 nM and greater than 1000 nM, respectively. Further, the Emax on human CB2 receptor [1] stood at 92%.
Turning to `C[C@@H](NC(=O)c1cc2cc(C3CC3)cnc2n(Cc2ccc(F)cc2)c1=O)c1ccc(F)cc1` [Compound 94, (R)-6-cyclopropyl-1-(4-fluorobenzyl)-N-(1-(4-fluorophenyl)ethyl)-2-oxo-1,2-dihydro-1,8-naphthyridine-3-carboxamide], the IC50 stood at 0.8 nM against human CB2 receptor [1], 4.1 nM on human CB2 receptor [2] and 3260 nM on human recombinant CB1R. In addition, at human CB2 receptor [1], the Emax stood at 55%.
For `C[C@@H](NC(=O)c1cc2cc(C3CC3)cnc2n(Cc2ccc(F)cc2)c1=O)c1ccc(C#N)cc1` [Compound 95, (R)—N-(1-(4-cyanophenyl)ethyl)-6-cyclopropyl-1-(4-fluorobenzyl)-2-oxo-1,2-dihydro-1,8-naphthyridine-3-carboxamide], in that order: 2 nM, 3.2 nM, 895 nM and 60%.
Take `O=C(NC1CC2(CCC2)C1)c1cc2cc(Br)cnc2n(Cc2ccc(F)cn2)c1=O` [Compound 99, 6-bromo-1-((5-fluoropyridin-2-yl)methyl)-2-oxo-N-(spiro[3.3]heptan-2-yl)-1,2-dihydro-1,8-naphthyridine-3-carboxamide]: the results for the 50% inhibitory concentration (IC50) against human CB2 receptor [1], on human CB2 receptor [2] and on human recombinant CB1R were 53 nM, 12 nM and greater than 10000 nM, respectively. For the same molecule, on human CB2 receptor [1], the Emax turned out to be 89%.
For `CC(C)c1cnc2c(c1)cc(C(=O)N[C@H](C)c1ccc(F)cc1)c(=O)n2Cc1ccc(F)cn1` [Compound 100, (R)—N-(1-(4-fluorophenyl)ethyl)-1-((5-fluoropyridin-2-yl)methyl)-6-isopropyl-2-oxo-1,2-dihydro-1,8-naphthyridine-3-carboxamide], in that order: 2 nM, 4 nM, 2880 nM and 82%.
For `C[C@@H](NC(=O)c1cc2cc(C3COC3)cnc2n(Cc2ccc(F)cc2)c1=O)c1ccc(C#N)cc1` [Compound 101, (R)—N-(1-(4-cyanophenyl)ethyl)-1-(4-fluorobenzyl)-6-(oxetan-3-yl)-2-oxo-1,2-dihydro-1,8-naphthyridine-3-carboxamide], in that order: 21 nM, 7.6 nM, 2110 nM and 71%.
For `O=C(NC1CC2(CCC2)C1)c1cc2cc(C3COC3)cnc2n(Cc2ccc(F)cc2)c1=O` [Compound 102, 1-(4-fluorobenzyl)-6-(oxetan-3-yl)-2-oxo-N-(spiro[3.3]heptan-2-yl)-1,2-dihydro-1,8-naphthyridine-3-carboxamide], in that order: 3 nM, 2.3 nM, 1610 nM and 79%.
In the case of `C[C@@H](NC(=O)c1cc2cc(C3COC3)cnc2n(Cc2ccc(F)cc2)c1=O)c1ccc(F)cc1` [Compound 103, (R)-1-(4-fluorobenzyl)-N-(1-(4-fluorophenyl)ethyl)-6-(oxetan-3-yl)-2-oxo-1,2-dihydro-1,8-naphthyridine-3-carboxamide], the IC50 at human CB2 receptor [1] came to 9 nM; at human CB2 receptor [2], 3 nM; on human recombinant CB1R, 2900 nM. Besides, at human CB2 receptor [1], the Emax is 91%.
Turning to `COc1ccc(-c2cnc3c(c2)cc(C(=O)NCc2ccc(F)cc2)c(=O)n3CCN2CCOCC2)cc1` [Compound 105, N-(4-fluorobenzyl)-6-(4-methoxyphenyl)-1-(2-morpholinoethyl)-2-oxo-1,2-dihydro-1,8-naphthyridine-3-carboxamide], the IC50 against human CB2 receptor [1] is 28 nM; on human CB2 receptor [2], 14 nM; on human recombinant CB1R, greater than 10000 nM. Besides, the Emax on human CB2 receptor [1] was determined as 116%.
